Data published in DBAASP.
In brackets after ≈: the same amount, converted by molar mass.

system: Escherichia coli JW0013; assay: ≥ marks a high value that may be exact or a test limit, other limits are often not marked, values filed in µg/mL are converted to µM

Row | Compound | MIC [µM]
1 | CC[C@H](C)[C@H](NC(=O)[C@H](CCCN=C(N)N)NC(=O)[C@H](CCCN=C(N)N)NC(=O)[C@@H]1CCCN1C(=O)[C@@H]1CCCN1C(=O)[C@H](CCCN=C(N)N)NC(=O)[C@@H]1CCCN1C(=O)[C@H](CCCN=C(N)N)NC(=O)[C@@H]1CCCN1C(=O)[C@H](CC(C)C)NC(=O)[C@H](Cc1ccc(O)cc1)NC(=O)[C@H](Cc1cnc[nH]1)NC(=O)[C@H](CCCN=C(N)N)NC(=O)[C@H](CCCCN)NC(=O)[C@H](CC(=O)O)NC(=O)[C@@H](N)C(C)C)C(=O)N[C@@H](Cc1ccc(O)cc1)C(=O)N[C@@H](CC(N)=O)C(=O)N[C@@H](CCCN=C(N)N)C(N)=O [VDKRHYLPRPRPPRRIYNR] | 0.683 (≈ 1.7 µg/mL)
2 | CC[C@H](C)[C@H](NC(=O)[C@H](CCCN=C(N)N)NC(=O)[C@H](CCCN=C(N)N)NC(=O)[C@@H]1CCCN1C(=O)[C@@H]1CCCN1C(=O)[C@H](CCCN=C(N)N)NC(=O)[C@@H]1CCCN1C(=O)[C@H](CCCN=C(N)N)NC(=O)[C@@H]1CCCN1C(=O)[C@H](CC(C)C)NC(=O)[C@H](Cc1ccc(O)cc1)NC(=O)[C@@H]1CCCN1C(=O)[C@@H]1CCCN1C(=O)[C@H](CCCCN)NC(=O)[C@H](CC(=O)O)NC(=O)[C@@H](N)CCCCN)C(=O)N[C@@H](Cc1ccc(O)cc1)C(=O)N[C@@H](CC(N)=O)C(=O)N[C@@H](CCCN=C(N)N)C(N)=O [KDKPPYLPRPRPPRRIYNR] | 1.98 (≈ 4.8 µg/mL)
3 | CC[C@H](C)[C@H](NC(=O)[C@H](CCCN=C(N)N)NC(=O)[C@H](CCCN=C(N)N)NC(=O)[C@@H]1CCCN1C(=O)[C@@H]1CCCN1C(=O)[C@H](CCCN=C(N)N)NC(=O)[C@@H]1CCCN1C(=O)[C@H](CCCN=C(N)N)NC(=O)[C@@H]1CCCN1C(=O)[C@H](CCCCN)NC(=O)[C@H](Cc1ccc(O)cc1)NC(=O)[C@H](Cc1cnc[nH]1)NC(=O)[C@H](CCCN=C(N)N)NC(=O)[C@H](CCCCN)NC(=O)[C@H](CC(=O)O)NC(=O)[C@@H](N)C(C)C)C(=O)N[C@@H](Cc1ccc(O)cc1)C(=O)N[C@@H](CC(N)=O)C(=O)N[C@@H](CCCN=C(N)N)C(N)=O [VDKRHYKPRPRPPRRIYNR] | 0.519 (≈ 1.3 µg/mL)
4 | CC[C@H](C)[C@H](NC(=O)[C@H](CCCN=C(N)N)NC(=O)[C@H](CCCN=C(N)N)NC(=O)[C@@H]1CCCN1C(=O)[C@@H]1CCCN1C(=O)[C@H](CCCN=C(N)N)NC(=O)[C@@H]1CCCN1C(=O)[C@H](CCCN=C(N)N)NC(=O)[C@@H]1CCCN1C(=O)[C@H](CC(C)C)NC(=O)[C@H](Cc1ccc(O)cc1)NC(=O)[C@H](CC(N)=O)NC(=O)[C@@H]1CCCN1C(=O)[C@H](CCCCN)NC(=O)[C@H](CC(=O)O)NC(=O)[C@@H](N)C(C)C)C(=O)N[C@@H](Cc1ccc(O)cc1)C(=O)N[C@@H](CC(N)=O)C(=O)N[C@@H](CCCN=C(N)N)C(N)=O [VDKPNYLPRPRPPRRIYNR] | 1.99 (≈ 4.8 µg/mL)
5 | CC[C@H](C)[C@H](NC(=O)[C@H](CCCN=C(N)N)NC(=O)[C@H](CCCN=C(N)N)NC(=O)[C@@H]1CCCN1C(=O)[C@@H]1CCCN1C(=O)[C@H](CCCN=C(N)N)NC(=O)[C@@H]1CCCN1C(=O)[C@H](CCCN=C(N)N)NC(=O)[C@@H]1CCCN1C(=O)[C@H](CC(C)C)NC(=O)[C@H](Cc1ccc(O)cc1)NC(=O)[C@@H]1CCCN1C(=O)[C@H](CCC(N)=O)NC(=O)[C@H](CCCCN)NC(=O)[C@H](CC(=O)O)NC(=O)[C@@H](N)C(C)C)C(=O)N[C@@H](Cc1ccc(O)cc1)C(=O)N[C@@H](CC(N)=O)C(=O)N[C@@H](CCCN=C(N)N)C(N)=O [VDKQPYLPRPRPPRRIYNR] | 1.28 (≈ 3.1 µg/mL)
